Data: the kinase profiling compilation of Christmann-Franck et al. (2016)
Where “and” joins values, the source holds several entries; their conditions need not be identical. Equal values may be shown once.

Key:
Assay in all cases: radiometric filter-binding kinase assay, Kinase HotSpot
Conditions in all cases: compound 0.5 µM; ATP 10 µM
FGR (human) = FGR (human) (UniProt P09769)
AURKC (human) = AURKC (human) (UniProt Q9UQB9)
CAMK2A (human) = CAMK2A (human) (UniProt Q9UQM7)
FYN (human) = FYN (human) (UniProt P06241)
PRKD1 (human) = PRKD1 (human) (UniProt Q15139)
MAPK1 (human) = MAPK1 (human) (UniProt P28482)
MAPK13 (human) = MAPK13 (human) (UniProt O15264)
ERBB2 (human) = ERBB2 (human) (UniProt P04626)
MAPK10 (human) = MAPK10 (human) (UniProt P53779)
FLT1 (human) = FLT1 (human) (UniProt P17948)
PRKD3 (human) = PRKD3 (human) (UniProt O94806)
CHEK1 (human) = CHEK1 (human) (UniProt O14757)
STK16 (human) = STK16 (human) (UniProt O75716)
CDK6 CCND3 (human) = CDK6 CCND3 (human) (UniProt P30281+Q00534)
ROCK1 (human) = ROCK1 (human) (UniProt Q13464)
ACVR1 (human) = ACVR1 (human) (UniProt Q04771)
Chain of ACVR1 (human) (Q04771 whole entry, looked up): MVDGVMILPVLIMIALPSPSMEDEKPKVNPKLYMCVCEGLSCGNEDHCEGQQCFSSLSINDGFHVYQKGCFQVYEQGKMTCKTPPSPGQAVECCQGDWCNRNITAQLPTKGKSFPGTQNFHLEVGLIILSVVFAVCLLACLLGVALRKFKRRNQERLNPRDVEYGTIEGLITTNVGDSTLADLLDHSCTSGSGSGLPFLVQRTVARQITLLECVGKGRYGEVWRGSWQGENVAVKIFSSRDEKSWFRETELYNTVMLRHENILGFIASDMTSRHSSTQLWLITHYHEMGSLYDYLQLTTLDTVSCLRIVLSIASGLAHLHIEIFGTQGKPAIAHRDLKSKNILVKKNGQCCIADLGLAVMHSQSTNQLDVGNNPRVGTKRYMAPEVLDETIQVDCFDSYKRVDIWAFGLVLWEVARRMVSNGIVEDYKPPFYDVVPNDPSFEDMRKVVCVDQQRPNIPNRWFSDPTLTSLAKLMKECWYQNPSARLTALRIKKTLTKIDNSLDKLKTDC

EPHB3 (human) = EPHB3 (human) (UniProt P54753)
Chain of EPHB3 (human) (P54753 whole entry, looked up): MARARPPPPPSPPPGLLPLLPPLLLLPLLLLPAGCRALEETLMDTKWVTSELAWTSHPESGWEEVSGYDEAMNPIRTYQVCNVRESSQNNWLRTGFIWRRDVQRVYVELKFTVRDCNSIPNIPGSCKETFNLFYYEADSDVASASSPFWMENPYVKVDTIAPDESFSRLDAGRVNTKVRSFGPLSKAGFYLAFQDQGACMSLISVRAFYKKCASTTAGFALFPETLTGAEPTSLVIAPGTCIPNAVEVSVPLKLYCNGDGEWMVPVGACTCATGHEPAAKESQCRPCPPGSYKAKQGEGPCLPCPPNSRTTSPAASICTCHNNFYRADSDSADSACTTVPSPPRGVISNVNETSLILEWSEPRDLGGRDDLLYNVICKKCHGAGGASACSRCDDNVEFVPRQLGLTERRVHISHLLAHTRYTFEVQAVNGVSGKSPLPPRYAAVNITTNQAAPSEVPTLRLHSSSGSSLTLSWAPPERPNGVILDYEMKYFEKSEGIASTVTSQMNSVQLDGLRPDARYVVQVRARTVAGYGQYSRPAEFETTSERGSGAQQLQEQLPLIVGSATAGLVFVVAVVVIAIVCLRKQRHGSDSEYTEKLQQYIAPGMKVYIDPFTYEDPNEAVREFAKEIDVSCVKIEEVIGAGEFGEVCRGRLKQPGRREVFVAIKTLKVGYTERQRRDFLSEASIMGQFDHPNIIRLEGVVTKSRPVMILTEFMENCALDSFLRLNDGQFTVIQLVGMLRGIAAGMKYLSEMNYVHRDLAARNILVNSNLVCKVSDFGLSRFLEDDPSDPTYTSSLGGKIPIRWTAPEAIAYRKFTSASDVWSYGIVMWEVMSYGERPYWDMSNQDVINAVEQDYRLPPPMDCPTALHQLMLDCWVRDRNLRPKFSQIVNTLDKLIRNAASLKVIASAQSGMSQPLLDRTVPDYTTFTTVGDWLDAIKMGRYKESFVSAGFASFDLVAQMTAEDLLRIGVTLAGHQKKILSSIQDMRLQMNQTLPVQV

PNCK (human) = PNCK (human) (UniProt Q6P2M8)
CSNK2A1 (human) = CSNK2A1 (human) (UniProt P68400)
RPS6KA4 KD2 (human) = RPS6KA4 KD2 (human) (UniProt O75676)
Chain of RPS6KA4 KD2 (human) (O75676 whole entry, looked up): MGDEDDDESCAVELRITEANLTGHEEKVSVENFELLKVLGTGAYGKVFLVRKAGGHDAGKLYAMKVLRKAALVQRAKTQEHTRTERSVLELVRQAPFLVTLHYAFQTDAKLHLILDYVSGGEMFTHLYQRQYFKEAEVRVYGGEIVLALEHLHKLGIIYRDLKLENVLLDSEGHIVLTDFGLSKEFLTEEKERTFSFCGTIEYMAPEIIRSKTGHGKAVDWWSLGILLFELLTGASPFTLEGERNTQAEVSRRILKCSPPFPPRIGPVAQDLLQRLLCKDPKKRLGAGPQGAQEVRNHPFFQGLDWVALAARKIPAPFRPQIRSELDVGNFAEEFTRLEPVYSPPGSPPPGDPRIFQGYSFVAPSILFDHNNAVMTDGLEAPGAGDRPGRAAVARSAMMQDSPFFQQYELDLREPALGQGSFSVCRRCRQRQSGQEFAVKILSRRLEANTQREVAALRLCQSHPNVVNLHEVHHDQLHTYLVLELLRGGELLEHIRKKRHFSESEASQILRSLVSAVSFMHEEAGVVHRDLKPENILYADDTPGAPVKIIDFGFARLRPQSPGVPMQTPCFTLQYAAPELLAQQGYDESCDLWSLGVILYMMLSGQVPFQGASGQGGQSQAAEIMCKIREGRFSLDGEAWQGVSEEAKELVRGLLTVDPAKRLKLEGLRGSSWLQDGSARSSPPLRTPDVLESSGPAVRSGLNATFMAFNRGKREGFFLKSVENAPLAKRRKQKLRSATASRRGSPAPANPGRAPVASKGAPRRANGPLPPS

MAP4K4 (human) = MAP4K4 (human) (UniProt O95819)
CSNK1A1 (human) = CSNK1A1 (human) (UniProt P48729)
SRPK1 (human) = SRPK1 (human) (UniProt Q96SB4)
CDK1 CCNA2 (human) = CDK1 CCNA2 (human) (UniProt P06493+P20248)
MAPKAPK3 (human) = MAPKAPK3 (human) (UniProt Q16644)
RPS6KA3 KD1 KD2 (human) = RPS6KA3 KD1 KD2 (human) (UniProt P51812)
Chain of RPS6KA3 KD1 KD2 (human) (P51812 whole entry, looked up): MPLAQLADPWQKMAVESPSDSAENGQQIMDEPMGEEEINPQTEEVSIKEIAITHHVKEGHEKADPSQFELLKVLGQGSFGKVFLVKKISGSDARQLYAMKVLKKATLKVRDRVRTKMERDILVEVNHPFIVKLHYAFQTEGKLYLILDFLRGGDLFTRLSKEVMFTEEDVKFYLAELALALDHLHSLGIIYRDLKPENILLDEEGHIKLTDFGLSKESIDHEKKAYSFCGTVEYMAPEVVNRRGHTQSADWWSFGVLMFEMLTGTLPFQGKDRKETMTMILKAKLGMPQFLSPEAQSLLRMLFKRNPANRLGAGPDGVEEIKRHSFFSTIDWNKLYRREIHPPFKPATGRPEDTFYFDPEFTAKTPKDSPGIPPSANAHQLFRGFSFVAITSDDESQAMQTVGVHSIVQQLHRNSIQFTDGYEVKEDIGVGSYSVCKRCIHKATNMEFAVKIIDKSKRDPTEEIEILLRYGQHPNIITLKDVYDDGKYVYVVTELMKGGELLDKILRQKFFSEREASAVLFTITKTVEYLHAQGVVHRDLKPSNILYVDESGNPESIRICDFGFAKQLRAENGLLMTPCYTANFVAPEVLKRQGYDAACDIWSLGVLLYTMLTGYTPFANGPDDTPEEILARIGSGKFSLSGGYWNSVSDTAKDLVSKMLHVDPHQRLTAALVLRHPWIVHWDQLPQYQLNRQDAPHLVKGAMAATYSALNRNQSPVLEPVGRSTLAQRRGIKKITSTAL

TGFBR1 (human) = TGFBR1 (human) (UniProt P36897)
GRK6 (human) = GRK6 (human) (UniProt P43250)
CDK4 CCND3 (human) = CDK4 CCND3 (human) (UniProt P30281+P11802)
MAPKAPK2 (human) = MAPKAPK2 (human) (UniProt P49137)
PAK2 (human) = PAK2 (human) (UniProt Q13177)
FLT3 (human) = FLT3 (human) (UniProt P36888)
PRKG1 (human) = PRKG1 (human) (UniProt Q13976)
FRK (human) = FRK (human) (UniProt P42685)
EPHA5 (human) = EPHA5 (human) (UniProt P54756)
MAP4K5 (human) = MAP4K5 (human) (UniProt Q9Y4K4)
Chain of MAP4K5 (human) (Q9Y4K4 whole entry, looked up): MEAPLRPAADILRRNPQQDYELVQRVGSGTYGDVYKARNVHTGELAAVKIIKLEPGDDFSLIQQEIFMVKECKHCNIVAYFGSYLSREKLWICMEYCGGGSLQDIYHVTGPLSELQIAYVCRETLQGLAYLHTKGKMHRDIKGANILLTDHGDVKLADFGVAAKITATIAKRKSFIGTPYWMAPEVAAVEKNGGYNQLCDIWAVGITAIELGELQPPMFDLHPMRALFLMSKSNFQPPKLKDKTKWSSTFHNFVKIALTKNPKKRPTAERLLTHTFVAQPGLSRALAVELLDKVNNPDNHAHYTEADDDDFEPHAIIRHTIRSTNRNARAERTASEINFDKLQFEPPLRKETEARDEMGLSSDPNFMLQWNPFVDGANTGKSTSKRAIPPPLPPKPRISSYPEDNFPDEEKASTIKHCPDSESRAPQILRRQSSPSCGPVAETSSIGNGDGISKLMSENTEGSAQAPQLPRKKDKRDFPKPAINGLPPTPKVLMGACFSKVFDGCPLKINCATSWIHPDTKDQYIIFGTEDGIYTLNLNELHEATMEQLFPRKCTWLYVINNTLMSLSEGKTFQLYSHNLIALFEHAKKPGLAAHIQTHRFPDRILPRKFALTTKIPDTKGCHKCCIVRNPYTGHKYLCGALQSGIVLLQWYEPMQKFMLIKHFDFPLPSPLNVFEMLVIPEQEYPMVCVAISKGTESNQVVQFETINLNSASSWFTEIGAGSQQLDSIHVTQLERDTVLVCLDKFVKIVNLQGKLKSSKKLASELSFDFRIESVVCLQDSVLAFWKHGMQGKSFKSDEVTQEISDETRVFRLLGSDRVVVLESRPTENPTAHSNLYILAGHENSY

CDK9 CCNT1 (human) = CDK9 CCNT1 (human) (UniProt P50750+O60563)
RIPK2 (human) = RIPK2 (human) (UniProt O43353)
TSSK2 (human) = TSSK2 (human) (UniProt Q96PF2)
Chain of TSSK2 (human) (Q96PF2 whole entry, looked up): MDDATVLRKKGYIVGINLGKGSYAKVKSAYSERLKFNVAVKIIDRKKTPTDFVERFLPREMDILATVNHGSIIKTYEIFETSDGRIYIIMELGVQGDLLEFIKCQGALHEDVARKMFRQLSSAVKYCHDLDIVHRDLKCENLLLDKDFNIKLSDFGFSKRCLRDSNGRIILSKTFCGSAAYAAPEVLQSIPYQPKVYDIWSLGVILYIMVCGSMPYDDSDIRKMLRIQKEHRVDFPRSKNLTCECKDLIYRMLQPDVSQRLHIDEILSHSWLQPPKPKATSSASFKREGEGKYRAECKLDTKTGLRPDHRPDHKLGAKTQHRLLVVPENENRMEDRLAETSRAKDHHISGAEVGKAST

PRKCA (human) = PRKCA (human) (UniProt P17252)
MAP4K2 (human) = MAP4K2 (human) (UniProt Q12851)

Chain of CAMK2A (human) (Q9UQM7 whole entry, looked up): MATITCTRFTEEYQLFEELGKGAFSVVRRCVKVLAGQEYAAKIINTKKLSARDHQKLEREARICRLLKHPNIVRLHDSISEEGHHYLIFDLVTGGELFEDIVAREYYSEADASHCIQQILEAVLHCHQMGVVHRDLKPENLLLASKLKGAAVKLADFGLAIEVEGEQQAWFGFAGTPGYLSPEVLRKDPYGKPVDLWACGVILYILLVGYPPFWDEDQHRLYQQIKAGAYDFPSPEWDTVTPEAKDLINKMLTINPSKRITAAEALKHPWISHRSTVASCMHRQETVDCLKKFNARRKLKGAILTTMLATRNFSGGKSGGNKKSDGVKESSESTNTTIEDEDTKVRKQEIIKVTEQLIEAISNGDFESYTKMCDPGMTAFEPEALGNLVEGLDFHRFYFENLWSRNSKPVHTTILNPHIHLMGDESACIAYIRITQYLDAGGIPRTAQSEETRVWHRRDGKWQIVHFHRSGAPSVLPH
Chain of AURKC (human) (Q9UQB9 whole entry, looked up): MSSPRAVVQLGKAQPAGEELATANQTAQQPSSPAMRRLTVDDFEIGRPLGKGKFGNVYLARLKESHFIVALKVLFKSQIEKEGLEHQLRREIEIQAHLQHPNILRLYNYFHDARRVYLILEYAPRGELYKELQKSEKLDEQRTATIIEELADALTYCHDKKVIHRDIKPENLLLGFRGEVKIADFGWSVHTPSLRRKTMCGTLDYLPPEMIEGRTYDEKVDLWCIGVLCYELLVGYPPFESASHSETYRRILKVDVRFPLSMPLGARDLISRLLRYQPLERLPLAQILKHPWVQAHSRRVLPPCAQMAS

CSc1nc(-c2ccc(F)cc2)c(-c2ccnc(NC(C)c3ccccc3)c2)[nH]1 (centres undefined)
residual activity (FGR (human)): 88.1%
residual activity (AURKC (human)): 100%
residual activity (CAMK2A (human)): 96.5%
residual activity (FYN (human)): 98.7%
residual activity (PRKD1 (human)): 90.1%
residual activity (MAPK1 (human)): 102%
residual activity (MAPK13 (human)): 93.9%
residual activity (ERBB2 (human)): 99.2%
residual activity (MAPK10 (human)): 125%
residual activity (FLT1 (human)): 71.5%
residual activity (PRKD3 (human)): 82%
residual activity (CHEK1 (human)): 101%
residual activity (STK16 (human)): 95.1%
residual activity (CDK6 CCND3 (human)): 98.3%
residual activity (ROCK1 (human)): 91.7%
residual activity (ACVR1 (human)): 89.3%
residual activity (EPHB3 (human)): 94%
residual activity (PNCK (human)): 92.9%
residual activity (CSNK2A1 (human)): 100%
residual activity (RPS6KA4 KD2 (human)): 96.5%
residual activity (MAP4K4 (human)): 91.6%
residual activity (CSNK1A1 (human)): 82.6%
residual activity (SRPK1 (human)): 106%
residual activity (CDK1 CCNA2 (human)): 78%
residual activity (MAPKAPK3 (human)): 107%
residual activity (RPS6KA3 KD1 KD2 (human)): 91%
residual activity (TGFBR1 (human)): 93.3%
residual activity (GRK6 (human)): 79.8%
residual activity (CDK4 CCND3 (human)): 111%
residual activity (MAPKAPK2 (human)): 106%
residual activity (PAK2 (human)): 104%
residual activity (FLT3 (human)): 92.8%
residual activity (PRKG1 (human)): 105%
residual activity (FRK (human)): 100%
residual activity (EPHA5 (human)): 106%
residual activity (MAP4K5 (human)): 85.6%
residual activity (CDK9 CCNT1 (human)): 99.1%
residual activity (RIPK2 (human)): 85.1%
residual activity (TSSK2 (human)): 78.2%
residual activity (PRKCA (human)): 108%
residual activity (MAP4K2 (human)): 82.5%

O=C(NC(NC(=S)Nc1ccc(F)c([N+](=O)[O-])c1)C(Cl)(Cl)Cl)C(c1ccccc1)c1ccccc1 (centres undefined)
residual activity (FGR (human)): 84.5%
residual activity (AURKC (human)): 93.8%
residual activity (CAMK2A (human)): 96%
residual activity (FYN (human)): 91.2%
residual activity (PRKD1 (human)): 96.9%
residual activity (MAPK1 (human)): 97.6%
residual activity (MAPK13 (human)): 107%
residual activity (ERBB2 (human)): 94.8%
residual activity (MAPK10 (human)): 96.2%
residual activity (FLT1 (human)): 97.2%
residual activity (PRKD3 (human)): 98.5%
residual activity (CHEK1 (human)): 100%
residual activity (STK16 (human)): 99.4%
residual activity (CDK6 CCND3 (human)): 99.3%
residual activity (ROCK1 (human)): 99.8%
residual activity (ACVR1 (human)): 98.8%
residual activity (EPHB3 (human)): 104%
residual activity (PNCK (human)): 115%
residual activity (CSNK2A1 (human)): 95.4%
residual activity (RPS6KA4 KD2 (human)): 92.7%
residual activity (MAP4K4 (human)): 92.7%
residual activity (CSNK1A1 (human)): 94.1%
residual activity (SRPK1 (human)): 99.3%
residual activity (CDK1 CCNA2 (human)): 101%
residual activity (MAPKAPK3 (human)): 106%
residual activity (RPS6KA3 KD1 KD2 (human)): 96.2%
residual activity (TGFBR1 (human)): 92.6%
residual activity (GRK6 (human)): 97.5%
residual activity (CDK4 CCND3 (human)): 93.7%
residual activity (MAPKAPK2 (human)): 96.3%
residual activity (PAK2 (human)): 100%
residual activity (FLT3 (human)): 99.3%
residual activity (PRKG1 (human)): 100% and 109%
residual activity (FRK (human)): 103%
residual activity (EPHA5 (human)): 107%
residual activity (MAP4K5 (human)): 91%
residual activity (CDK9 CCNT1 (human)): 95%
residual activity (RIPK2 (human)): 97.4%
residual activity (TSSK2 (human)): 92.7%
residual activity (PRKCA (human)): 73.1%
residual activity (MAP4K2 (human)): 111%

CCN1/C(=C/C(C)=O)Sc2ccc(OC)cc21
residual activity (FGR (human)): 91.7%
residual activity (AURKC (human)): 94.8%
residual activity (CAMK2A (human)): 103%
residual activity (FYN (human)): 99.1%
residual activity (PRKD1 (human)): 78.1%
residual activity (MAPK1 (human)): 97.1%
residual activity (MAPK13 (human)): 105%
residual activity (ERBB2 (human)): 99.9%
residual activity (MAPK10 (human)): 102%
residual activity (FLT1 (human)): 88.4%
residual activity (PRKD3 (human)): 62.5%
residual activity (CHEK1 (human)): 87.9%
residual activity (STK16 (human)): 87.4%
residual activity (CDK6 CCND3 (human)): 104%
residual activity (ROCK1 (human)): 99.3%
residual activity (ACVR1 (human)): 88.1%
residual activity (EPHB3 (human)): 90.3%
residual activity (PNCK (human)): 101%
residual activity (CSNK2A1 (human)): 98.1%
residual activity (RPS6KA4 KD2 (human)): 91.8%
residual activity (MAP4K4 (human)): 83.2%
residual activity (CSNK1A1 (human)): 53%
residual activity (SRPK1 (human)): 106%
residual activity (CDK1 CCNA2 (human)): 97.5%
residual activity (MAPKAPK3 (human)): 90.1%
residual activity (RPS6KA3 KD1 KD2 (human)): 102%
residual activity (TGFBR1 (human)): 94.2%
residual activity (GRK6 (human)): 103%
residual activity (CDK4 CCND3 (human)): 97.4%
residual activity (MAPKAPK2 (human)): 94.6%
residual activity (PAK2 (human)): 105%
residual activity (FLT3 (human)): 76.1%
residual activity (PRKG1 (human)): 82.4% and 87%
residual activity (FRK (human)): 99.5%
residual activity (EPHA5 (human)): 97.8%
residual activity (MAP4K5 (human)): 92.3%
residual activity (CDK9 CCNT1 (human)): 101%
residual activity (RIPK2 (human)): 86.3%
residual activity (TSSK2 (human)): 106%
residual activity (PRKCA (human)): 68.7%
residual activity (MAP4K2 (human)): 105%

CC(C)n1cnc2c(Nc3cccc(Cl)c3)nc(NCCO)nc21
residual activity (FGR (human)): 61.5%
residual activity (AURKC (human)): 92.1%
residual activity (CAMK2A (human)): 99.1%
residual activity (FYN (human)): 60.4%
residual activity (PRKD1 (human)): 99.2%
residual activity (MAPK1 (human)): 107%
residual activity (MAPK13 (human)): 99%
residual activity (ERBB2 (human)): 96.2%
residual activity (MAPK10 (human)): 101%
residual activity (FLT1 (human)): 93.4%
residual activity (PRKD3 (human)): 88.4%
residual activity (CHEK1 (human)): 87.1%
residual activity (STK16 (human)): 89.8%
residual activity (CDK6 CCND3 (human)): 89.7%
residual activity (ROCK1 (human)): 101%
residual activity (ACVR1 (human)): 80.3%
residual activity (EPHB3 (human)): 119%
residual activity (PNCK (human)): 100%
residual activity (CSNK2A1 (human)): 83.8%
residual activity (RPS6KA4 KD2 (human)): 83.8%
residual activity (MAP4K4 (human)): 75.5%
residual activity (CSNK1A1 (human)): 62.3%
residual activity (SRPK1 (human)): 61.7%
residual activity (CDK1 CCNA2 (human)): 78.5%
residual activity (MAPKAPK3 (human)): 91%
residual activity (RPS6KA3 KD1 KD2 (human)): 60.1%
residual activity (TGFBR1 (human)): 97.7%
residual activity (GRK6 (human)): 88.8%
residual activity (CDK4 CCND3 (human)): 93.3%
residual activity (MAPKAPK2 (human)): 98.9%
residual activity (PAK2 (human)): 106%
residual activity (FLT3 (human)): 15.1%
residual activity (PRKG1 (human)): 92.2% and 98.1%
residual activity (FRK (human)): 94.2%
residual activity (EPHA5 (human)): 91.7%
residual activity (MAP4K5 (human)): 81.5%
residual activity (CDK9 CCNT1 (human)): 87.4%
residual activity (RIPK2 (human)): 84.3%
residual activity (TSSK2 (human)): 107%
residual activity (PRKCA (human)): 78.6%
residual activity (MAP4K2 (human)): 87.6%
